The test system of data set [1] is CYP1A1 mRNA. The data set can be described thus: CYP1A1 mRNA expression in primary human hepatocytes. Type of data set: cell-based. Particulars: human.
The target of data set [2] is T1, AhR (Homo sapiens, UniProt P35869).
T1 sequence (P35869 11-848): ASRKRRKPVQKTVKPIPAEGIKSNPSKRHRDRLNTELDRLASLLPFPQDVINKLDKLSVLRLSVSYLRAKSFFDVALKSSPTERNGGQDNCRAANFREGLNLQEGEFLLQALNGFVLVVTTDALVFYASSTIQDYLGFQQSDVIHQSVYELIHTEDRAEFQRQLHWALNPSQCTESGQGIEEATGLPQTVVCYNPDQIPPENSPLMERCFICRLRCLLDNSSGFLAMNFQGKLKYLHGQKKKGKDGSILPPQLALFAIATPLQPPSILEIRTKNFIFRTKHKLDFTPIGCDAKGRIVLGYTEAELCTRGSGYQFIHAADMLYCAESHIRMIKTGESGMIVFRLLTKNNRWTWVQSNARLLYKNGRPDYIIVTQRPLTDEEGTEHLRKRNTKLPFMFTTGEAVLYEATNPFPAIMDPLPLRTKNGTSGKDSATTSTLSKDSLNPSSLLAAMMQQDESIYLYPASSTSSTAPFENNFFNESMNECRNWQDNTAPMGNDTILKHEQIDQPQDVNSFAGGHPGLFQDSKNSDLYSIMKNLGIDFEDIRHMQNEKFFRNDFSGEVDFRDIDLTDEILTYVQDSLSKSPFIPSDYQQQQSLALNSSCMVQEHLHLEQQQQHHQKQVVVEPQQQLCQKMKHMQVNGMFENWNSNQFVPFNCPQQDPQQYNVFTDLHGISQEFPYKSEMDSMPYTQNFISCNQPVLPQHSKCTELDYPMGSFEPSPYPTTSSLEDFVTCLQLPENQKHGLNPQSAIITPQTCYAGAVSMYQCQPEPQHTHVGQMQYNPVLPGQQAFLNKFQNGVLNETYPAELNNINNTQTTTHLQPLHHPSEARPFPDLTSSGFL
The data set can be described thus: Gene reporter assay, transcriptional activity of AhR in AZ-AHR reporter cells. As to conditions: 10 µM and 50 µM, 24 h.

In data set [3] the test system is CYP1A1 mRNA in primary human hepatocytes. Kind of data set: CYP1A1 mRNA expression in primary human hepatocytes. Type of data set: cell-based.
Data set [4] deals with T2, CYP1A1 (Homo sapiens, UniProt P04798).
T2 sequence (P04798 1-512): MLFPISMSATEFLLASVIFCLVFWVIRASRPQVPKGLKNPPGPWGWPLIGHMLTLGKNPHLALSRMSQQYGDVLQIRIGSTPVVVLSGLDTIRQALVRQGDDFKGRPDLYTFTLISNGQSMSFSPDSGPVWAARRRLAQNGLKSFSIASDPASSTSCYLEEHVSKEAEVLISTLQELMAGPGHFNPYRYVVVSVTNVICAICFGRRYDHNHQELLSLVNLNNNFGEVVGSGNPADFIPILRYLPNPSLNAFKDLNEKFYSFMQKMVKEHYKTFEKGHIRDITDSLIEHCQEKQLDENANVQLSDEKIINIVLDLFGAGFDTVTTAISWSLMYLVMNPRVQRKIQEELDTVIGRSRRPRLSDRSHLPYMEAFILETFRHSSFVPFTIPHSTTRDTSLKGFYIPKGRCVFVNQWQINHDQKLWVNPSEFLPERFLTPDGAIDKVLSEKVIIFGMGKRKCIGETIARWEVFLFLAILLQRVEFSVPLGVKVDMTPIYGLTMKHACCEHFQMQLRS
The data set can be described thus: Enzyme activity of CYP1A1 in human liver microsomes. In kind it is biochemical. Particulars: 100 µM.

The test system of data set [5] is CYP1A1 protein in primary human hepatocytes. The data set can be described thus: CYP1A1 protein in primary human hepatocytes.
Data set [6] deals with CYP1A1 mRNA in HepG2 cells. The data set can be described thus: CYP1A1 mRNA expression in HepG2 cells. As to conditions: HepG2, TCDD 5 nM, 24 h, two independent experiments.
Data set [7] concerns CYP1A1 mRNA in LS174T cells. The data set can be described thus: CYP1A1 mRNA expression in LS174T cells. Particulars: TCDD 5 nM, 24 h, two independent experiments.
Data set [8] has as its system CYP1A1 protein in HepG2 cells. Kind of data set: CYP1A1 protein in HepG2 cells. As to conditions: HepG2, TCDD 5 nM, 48 h. Type of data set: cell-based, human.
Data set [9] concerns CYP1A1 protein in LS174T cells. The data set can be described thus: CYP1A1 protein in LS174T cells. In kind it is cell-based, human. As to conditions: TCDD 5 nM, 48 h.
The subject of data set [10] is CYP1A1. Particulars: read-out: IC50, inhibition of CYP1A1; aglycons (anthocyanidins); ref Kamenickova et al. 2013; cited from earlier work.
[11] abbreviates: primary human hepatocytes (culture LH48 as printed).
[12] abbreviates: male, primary human hepatocytes (culture LH45).
Setting [13] is: male, primary human hepatocytes (culture LH46).
Where [14] appears, read: male, primary human hepatocytes (culture LH47).
Where [15] appears, read: hepatocyte culture LH45, 10 µM, 24 h.
The mark [16] stands for this setting: hepatocyte culture LH45, 50 µM, 24 h.
[17] abbreviates: hepatocyte culture LH46, 10 µM, 24 h.
Where [18] appears, read: hepatocyte culture LH46, 50 µM, 24 h.
[19] abbreviates: hepatocyte culture LH47, 50 µM, 24 h.
The mark [20] stands for this setting: hepatocyte culture LH48 (so in the source), 50 µM, 24 h.

Molecules are shown by their SMILES. Values joined by “and” are separate entries in the source; they are usually repeats but may differ in a detail not shown here. Identical values can stand only once.

In the case of `OC[C@H]1O[C@@H](Oc2cc3c(O)cc(O)cc3[o+]c2-c2ccc(O)c(O)c2)[C@H](O)[C@@H](O)[C@@H]1O` [CYA-1, cyanidin-3-O-glucoside chloride], the fold induction at 24 h, 50 µM in data set [1] (setting [11]) worked out at 0.03; in [1] (setting [12]) it was 0.73 ± 0.22; in data set [1] (setting [13]) it was 1.04 ± 0.12; in data set [1] (setting [14]), 0.28 ± 0.01. The fold induction at 24 h, 10 µM in data set [1] (setting [12]) is 1.22 ± 0.04; in data set [1] (setting [13]) it was 1.14 ± 0.2.
Regarding `COc1cc(-c2[o+]c3cc(O)cc(O)c3cc2O[C@@H]2O[C@H](CO)[C@@H](O)[C@H](O)[C@H]2O)cc(OC)c1O` [MAL-1, malvidin-3-O-glucoside chloride], the fold induction at 24 h, 50 µM in data set [1] (setting [11]) stood at 0.29 ± 0.03; in [1] (setting [12]) it was 0.93 ± 0.11; in data set [1] (setting [13]) it was 1.56 ± 0.23; in [1] (setting [14]), 0.14 ± 0.13. The fold induction at 24 h, 10 µM in [1] (setting [12]) worked out at 1.13 ± 0.35; in data set [1] (setting [13]), 2.34 ± 0.25.
For the molecule `Oc1cc(O)c2c(c1)O[C@@]1(c3ccc(O)c(O)c3)Oc3cc(O)c4c(c3[C@@H]2[C@H]1O)O[C@H](c1ccc(O)c(O)c1)[C@H](O)C4` [PAC, proanthocyanidin A2], in data set [2], the “induction of luciferase activity” value is “No significant induction”.
As for `OC[C@H]1O[C@@H](Oc2cc3c(O[C@@H]4O[C@H](CO)[C@@H](O)[C@H](O)[C@H]4O)cc(O)cc3[o+]c2-c2ccc(O)cc2)[C@H](O)[C@@H](O)[C@@H]1O` [PEL-1, pelargonidin-3,5-di-O-glucoside chloride], in data set [3] (10 µM), the “CYP1A1 mRNA fold induction over the vehicle-treated cells, LH45” value (shortened to “CYP1A1 mRNA fold induction … LH45”) came out at 0.70 ± 0.17 fold and the “CYP1A1 mRNA fold induction over the vehicle-treated cells, LH46” value (“CYP1A1 mRNA fold induction … LH46” for short) was 1.49 ± 0.10 fold. Further, in data set [3] (50 µM), the “CYP1A1 mRNA fold induction … LH45” value was found to be 1.17 ± 0.14 fold; the “CYP1A1 mRNA fold induction … LH46” value is 2.21 ± 0.66 fold; the “CYP1A1 mRNA fold induction over the vehicle-treated cells, LH47” value (shortened to “CYP1A1 mRNA fold induction … LH47”) was 0.59 ± 0.52 fold; the “CYP1A1 mRNA fold induction over the vehicle-treated cells, LH48” value (“CYP1A1 mRNA fold induction … LH48” below) is reported as 0.98 ± 0.27 fold.
For `CC1OC(OCC2OC(Oc3cc4c(O)cc(O)cc4[o+]c3-c3ccc(O)cc3)C(O)C(O)C2O)C(O)C(O)C1O.[Cl-]` (stereo not drawn) [PEL-2, pelargonidin-3-O-rutinoside chloride], the figures for the “CYP1A1 mRNA fold induction … LH45” value in [3] (setting [15]) and in data set [3] (setting [16]) were 0.87 ± 0.04 fold and 0.24 ± 0.01 fold, respectively. The “CYP1A1 mRNA fold induction … LH46” value in data set [3] (setting [17]) is recorded as 2.66 ± 0.20 fold; in [3] (setting [18]) it was 2.39 ± 0.22 fold. In addition, the “CYP1A1 mRNA fold induction … LH47” value in [3] (setting [19]) amounted to 0.61 ± 0.01 fold. Further, in [3] (setting [20]), the “CYP1A1 mRNA fold induction … LH48” value turned out to be 0.60 ± 0.17 fold. Besides, the “induction of CYP1A1 mRNA” value in [3] (hepatocytes) is given as “Neither compound induced”. The “CYP1A1 activity remaining, % of the initial activity (without anthocyanin)” value in data set [4] came out at 79%. Moreover, the “induction of luciferase activity” value in data set [2] is “concentration-dependent induction”. Besides, the “induction of CYP1A1 protein” value in [5] (four different primary human hepatocytes cultures) was “Neither compound induced”.
With `COc1cc(-c2[o+]c3cc(O)cc(O)c3cc2O[C@@H]2O[C@H](CO)[C@@H](O)[C@H](O)[C@H]2O)ccc1O.[Cl-]` [PEO-1, peonidin-3-O-glucoside chloride], the entries for the “CYP1A1 mRNA fold induction … LH45” value in data set [3] (setting [15]) and in data set [3] (setting [16]) were 0.21 ± 0.03 fold and 0.80 ± 0.22 fold, respectively. In addition, the “CYP1A1 mRNA fold induction … LH46” value was 2.14 ± 0.18 fold in data set [3] (setting [17]) and 2.48 ± 0.57 fold in data set [3] (setting [18]). In addition, in data set [3] (setting [19]), the “CYP1A1 mRNA fold induction … LH47” value was found to be 0.51 ± 0.07 fold. For the same molecule, the “CYP1A1 mRNA fold induction … LH48” value in [3] (setting [20]) was determined as 0.08 ± 0.03 fold.
`Clc1cc2c(cc1Cl)Oc1cc(Cl)c(Cl)cc1O2` [TCDD, 2,3,7,8-Tetrachlorodibenzo-p-dioxin]: the “induction of CYP1A1 mRNA” value in data set [6] is 322 fold and 216 fold; in data set [7], 1003 fold and 724 fold. The “levels of CYP1A1 protein” value in data set [8] was “strongly induced”; in [9], “strongly induced”; in data set [5] (four human hepatocytes cultures, TCDD 5 nM, 48 h), “strongly induced”. For the same molecule, in data set [3] (hepatocyte culture LH45, TCDD 5 nM, 24 h), the “CYP1A1 mRNA fold induction … LH45” value came out at 125.4 ± 17.7 fold. In data set [3] (hepatocyte culture LH47, TCDD 5 nM, 24 h), the “CYP1A1 mRNA fold induction … LH47” value came out at 104.7 ± 13.4 fold. Moreover, the “magnitude of induction of CYP1A1 mRNA, LH49” value in [3] (hepatocyte culture LH49, TCDD, 24 h) is on record as 71 fold.
For the molecule `Oc1cc(O)c2cc(O)c(-c3cc(O)c(O)c(O)c3)[o+]c2c1` [delphinidin], the IC50 in data set [10] was 77 µM.
On to `Oc1ccc(-c2[o+]c3cc(O)cc(O)c3cc2O)cc1` [pelargonidin], for which the 50% inhibitory concentration (IC50) in data set [10] was 33 µM.

Values taken from PMC3759295 (Toxicology letters, 2013).
